Km data for one molecule are collected here from publication PMC8858684 (FEBS letters, 2021).

This test has as its target CTX-M-14 β-lactamase (Escherichia coli, UniProt Q9L5C7). Briefly: hydrolysis kinetics. In kind it is biochemical. The following applies: read-out: Cefotaxime / Km; purified enzyme.

Take `CO/N=C(\C(=O)N[C@@H]1C(=O)N2C(C(=O)O)=C(COC(C)=O)CS[C@H]12)c1csc(N)n1` [cefotaxime]: the Km came out at 83.8 ± 2.3 µM.
